For the experiment, the target named is D(3) dopamine receptor (Homo sapiens, UniProt P35462). Put plainly: Ability to displace [125I]-sulpiride from human Dopamine receptor D3, expressed in CHO cells.

pKi: −log10 of the molar value.

Sequence of D(3) dopamine receptor (P35462 as listed by the source): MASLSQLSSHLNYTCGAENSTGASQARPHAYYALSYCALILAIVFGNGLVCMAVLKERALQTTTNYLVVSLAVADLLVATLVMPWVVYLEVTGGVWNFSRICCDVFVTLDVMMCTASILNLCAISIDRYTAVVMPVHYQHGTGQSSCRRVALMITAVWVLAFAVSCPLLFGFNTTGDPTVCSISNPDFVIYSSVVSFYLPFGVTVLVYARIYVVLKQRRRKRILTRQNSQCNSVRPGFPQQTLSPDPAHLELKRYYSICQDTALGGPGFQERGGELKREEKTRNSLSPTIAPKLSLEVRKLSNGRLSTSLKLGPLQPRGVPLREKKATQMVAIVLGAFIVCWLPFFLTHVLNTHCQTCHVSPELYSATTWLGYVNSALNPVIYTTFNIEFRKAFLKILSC

As a reminder, the pKi is the Ki on a negative log10 scale, so that one unit is a factor of ten. Read a low pKi as a large Ki. `CCS(=O)(=O)c1ccc(OC)c(-c2ccc(CN3CCCCCC3c3ccccc3)[nH]2)c1` (stereo unspecified) had a pKi of 8.89.
